Consider 2 compounds from patent US4834964A, “Use of charged nitroxides as NMR image enhancing agents for CSF” (M.R.I., Inc., priority 1986, dated 1989).

For data set [1] the following is noted: U.S. Pat. No. 3,702,831; cited from earlier work.
The nature of data set [2]: Stability/pharmacokinetics of nitroxide in the CSF of dogs (nitroxide concentration). In kind it is in vivo. The settings on record: 20 umol/animal, dog, average of 4 studies. How it is done: (§1) Dogs (data is the average of 4 independent studies) under general anesthetic were injected with 2 ml of a 10 mM stock solution of 4-(N,N,N-dimethylethylamino)-2,2,6,6-tetramethylpiperidin-oxyl iodide in saline (0.9%) into the spinal cavity (3 cm below the head). At defined times, samples of CSF were removed from a catheter inserted at the point of injection. The samples were analyzed for nitroxide concentration and relaxation times. (A separate experiment determined that charged nitroxides are not bioreduced by CSF fluid. Therefore, the diminution in nitroxide concentration is attributed to active transport from the spinal cavity.) The data obtained are set forth in the table below.

Data set [3] can be described thus: NMR image enhancement with nitroxide (cranium and spinal column). It counts as in vivo. The note with it: dog, 1.5 Tesla whole-body imager; 7, 21, 40, 60 and 90 min post injection, versus control images. The text has this:
An anesthetized dog (ca. 15 kg) as described in Example 1, in a prone position with front and hind legs extended and the head supported by a pillow in the upright position, was inserted into a small animal coil of a whole-body NMR imager (General Electric 1.5 Teslar instrument). Images of two cross-sections of the cranium and four cross-sections of the spinal column at various points below the point of injection were obtained as controls. The dog was removed from the instrument, injected with the NMR image-enhancing agent as described in Example 1 and the above-described images again obtained at 7, 21, 40, 60 and 90 minutes post injection. […] Because the loss in image enhancement is due to CSF turnover rather than decomposition of the nitroxide or passive diffusion thereof across the spinal cord, this procedure can be employed to study turnover of the CSF.

The nature of data set [4]: T1 relaxation time of CSF after injection of nitroxide into spinal cavity of dogs. On the set-up: T1 RELAXATION TIME: unit not given here. The settings on record: dog; for T1 RELAXATION TIME: average of 4 studies, time 0: 3.11. In kind it is in vivo. Here is the method: as §1
[5] abbreviates: 5 min after 2 ml of 10 mM into spinal cavity.
Setting [6] is: 10 min after 2 ml of 10 mM into spinal cavity.
[7] abbreviates: 20 min after 2 ml of 10 mM into spinal cavity.
Where [8] appears, read: 30 min after 2 ml of 10 mM into spinal cavity.
Setting [9] is: 45 min after 2 ml of 10 mM into spinal cavity.
Where [10] appears, read: 60 min after 2 ml of 10 mM into spinal cavity.
Where [11] appears, read: 75 min after 2 ml of 10 mM into spinal cavity.
Where [12] appears, read: 90 min after 2 ml of 10 mM into spinal cavity.
[13] abbreviates: 150 min after 2 ml of 10 mM into spinal cavity.

Take `CC(C)(C)N([O])C(C)(C)C` [di-tert-butylnitroxide]: the in vivo elimination entry in data set [1] was “rapidly eliminated in vivo”.
Regarding `CC[N+](C)(C)C1CC(C)(C)N([O])C(C)(C)C1` [4-(N,N,N-dimethylethylamino)-2,2,6,6-tetramethylpiperidinoxyl iodide], in data set [2] (setting [5]), the concentration at 5 min was determined as 3800 µM. Also, the concentration at 10 min in data set [2] (setting [6]) stood at 3300 µM. Further, the concentration at 20 min in data set [2] (setting [7]) worked out at 2200 µM. In data set [2] (setting [8]), this compound yielded a concentration at 0.5 h of 2000 µM. In data set [2] (setting [9]), this compound showed a concentration at 0.75 h of 1000 µM. For the same compound, the concentration at 1 h in data set [2] (setting [10]) was determined as 720 µM. In data set [2] (setting [11]), this compound displayed a concentration at 1.25 h of 450 µM. In data set [2] (setting [12]), this compound yielded a concentration at 1.5 h of 220 µM. The concentration at 1.75 h in data set [2] (105 min after 2 ml of 10 mM into spinal cavity) is 70 µM. Also, in data set [2] (setting [13]), the concentration at 2.5 h was 30 µM. In addition, the “NMR image of CSF in spinal column” value in data set [3] is “the CSF fluid in the spinal column was clearly imaged and produced a clear anatomical profile of the spinal column in each image, including the cranial sections and all of the 90 minute images”. In addition, the “T1 RELAXATION TIME” value was determined as 0.904 in data set [4] (setting [5]); 1.147 in data set [4] (setting [6]); 1.751 in data set [4] (setting [7]); 1.942 in data set [4] (setting [8]); 2.439 in data set [4] (setting [9]); 2.533 in data set [4] (setting [10]). The figures for the “T1 RELAXATION TIME” value in data set [4] (setting [11]), in data set [4] (setting [12]) and in data set [4] (setting [13]) were 2.546, 2.782 and 2.958, respectively. Besides, the “T1 relaxation time, sufficiency for enhanced NMR image” value in data set [4] (150 min after injection (footnote)) is “insufficient to obtain an enhanced NMR image”.
